{
  "source": "ChEMBL document CHEMBL1649130",
  "about": "“In vitro activity of Iclaprim against respiratory and bacteremic isolates of Streptococcus pneumoniae” (Antimicrob Agents Chemother, 2009)",
  "key": {"Streptococcus pneumoniae [1]": {"tested_on": "Streptococcus pneumoniae", "assay": "Antimicrobial activity against Streptococcus pneumoniae assessed as resistant isolates broth microdilution method", "type": "functional"}, "Streptococcus pneumoniae [2]": {"tested_on": "Streptococcus pneumoniae", "assay": "Antimicrobial activity against compound-susceptible Streptococcus pneumoniae by broth microdilution method"}, "Streptococcus pneumoniae [3]": {"tested_on": "Streptococcus pneumoniae", "assay": "Antimicrobial activity against compound-intermediate Streptococcus pneumoniae by broth microdilution method"}, "Streptococcus pneumoniae [4]": {"tested_on": "Streptococcus pneumoniae", "assay": "Antimicrobial activity against compound-resistant Streptococcus pneumoniae by broth microdilution method"}, "Streptococcus pneumoniae [5]": {"tested_on": "Streptococcus pneumoniae", "assay": "Antimicrobial activity against penicillin-susceptible Streptococcus pneumoniae by broth microdilution method", "type": "functional"}, "Streptococcus pneumoniae [6]": {"tested_on": "Streptococcus pneumoniae", "assay": "Antimicrobial activity against Ciprofloxacin-susceptible Streptococcus pneumoniae by broth microdilution method", "type": "functional"}, "[7]": {"assay": "Drug concentration in epithelial lining fluid of patient with Streptococcus pneumoniae infections at 1.6 mg/kg, iv administered as single 60 mins infusion measured after 5.5 to 7 hrs", "type": "ADME, organism-based", "design": "dose 1.6 mg/kg, route intravenous", "settings": "human, in vivo"}, "[8]": {"assay": "Drug concentration in alveolar macrophages of patient with Streptococcus pneumoniae infections at 1.6 mg/kg, iv administered as single 60 mins infusion measured after 3 to 4 hrs", "type": "ADME, organism-based, Macrophage", "design": "dose 1.6 mg/kg, route intravenous", "settings": "human, in vivo"}, "[9]": {"assay": "Drug concentration in alveolar macrophages of patient with Streptococcus pneumoniae infections at 1.6 mg/kg, iv administered as single 60 mins infusion measured after 1 to 2 hrs", "type": "ADME, organism-based, Macrophage", "design": "dose 1.6 mg/kg, route intravenous", "settings": "human, in vivo"}, "[10]": {"assay": "Drug concentration in epithelial lining fluid of patient with Streptococcus pneumoniae infections at 1.6 mg/kg, iv administered as single 60 mins infusion measured after 3 to 4 hrs", "type": "ADME, organism-based", "design": "dose 1.6 mg/kg, route intravenous", "settings": "human, in vivo"}, "Streptococcus pneumoniae [11]": {"tested_on": "Streptococcus pneumoniae", "assay": "Antimicrobial activity against Doxycycline-susceptible Streptococcus pneumoniae by broth microdilution method", "type": "functional"}, "Streptococcus pneumoniae [12]": {"tested_on": "Streptococcus pneumoniae", "assay": "Antimicrobial activity against SXT-susceptible Streptococcus pneumoniae by broth microdilution method", "type": "functional"}, "[13]": {"assay": "Drug concentration in epithelial lining fluid of patient with Streptococcus pneumoniae infections at 1.6 mg/kg, iv administered as single 60 mins infusion measured after 1 to 2 hrs", "type": "ADME, organism-based", "design": "dose 1.6 mg/kg, route intravenous", "settings": "human, in vivo"}, "[14]": {"assay": "Drug concentration in alveolar macrophages of patient with Streptococcus pneumoniae infections at 1.6 mg/kg, iv administered as single 60 mins infusion measured after 5.5 to 7 hrs", "type": "ADME, organism-based, Macrophage", "design": "dose 1.6 mg/kg, route intravenous", "settings": "human, in vivo"}, "[15]": {"settings": "Streptococcus pneumoniae, read-out: MIC50"}},
  "data": [
    {"smiles": "C[C@H]1c2cccc(O)c2C(=O)C2=C(O)[C@]3(O)C(=O)C(C(N)=O)=C(O)[C@@H](N(C)C)[C@@H]3[C@@H](O)[C@@H]21.O", "note": "[DOXYCYCLINE]", "values": [
      {"measurement": "Activity", "setting": "Streptococcus pneumoniae [1]", "value": 0.9, "unit": "%"}
    ]},
    {"smiles": "CC1(C)S[C@@H]2[C@H](NC(=O)Cc3ccccc3)C(=O)N2[C@H]1C(=O)O", "note": "[PENICILLIN G]", "values": [
      {"measurement": "Activity", "setting": "Streptococcus pneumoniae [1]", "value": 6.8, "unit": "%"}
    ]},
    {"smiles": "O=C(O)c1cn(C2CC2)c2cc(N3CCNCC3)c(F)cc2c1=O", "note": "[CIPROFLOXACIN]", "values": [
      {"measurement": "MIC", "setting": "Streptococcus pneumoniae [2]", "value": "≤ 1", "unit": "µg/mL"},
      {"measurement": "Activity", "setting": "Streptococcus pneumoniae [1]", "value": 1.7, "unit": "%"},
      {"measurement": "MIC", "setting": "Streptococcus pneumoniae [3]", "value": 2, "unit": "µg/mL"},
      {"measurement": "MIC", "setting": "Streptococcus pneumoniae [4]", "value": "≥ 4", "unit": "µg/mL"}
    ]},
    {"smiles": "CC[C@H]1OC(=O)[C@H](C)[C@@H](O[C@H]2C[C@@](C)(OC)[C@@H](O)[C@H](C)O2)[C@H](C)[C@@H](O[C@@H]2O[C@H](C)C[C@H](N(C)C)[C@H]2O)[C@](C)(OC)C[C@@H](C)C(=O)[C@H](C)[C@@H](O)[C@]1(C)O", "note": "[CLARITHROMYCIN]", "values": [
      {"measurement": "Activity", "setting": "Streptococcus pneumoniae [1]", "value": 11.8, "unit": "%"}
    ]},
    {"smiles": "COc1cc(Cc2cnc(N)nc2N)c2c(c1OC)OC(C1CC1)C=C2", "note": "(stereo unspecified) [ICLAPRIM]", "values": [
      {"measurement": "MIC50", "setting": "Streptococcus pneumoniae [5]", "value": 0.06, "unit": "µg/mL"},
      {"measurement": "MIC50", "setting": "Streptococcus pneumoniae [5]; [15]", "value": "≤ 0.03", "unit": "µg/mL"},
      {"measurement": "MIC50", "setting": "Streptococcus pneumoniae [6]", "value": 0.06, "unit": "µg/mL"},
      {"measurement": "MIC50", "setting": "Streptococcus pneumoniae [6]; [15]", "value": "≤ 0.03", "unit": "µg/mL"},
      {"measurement": "Drug uptake", "setting": "[7]", "value": 2.66, "unit": "µg/mL"},
      {"measurement": "Drug uptake", "setting": "[8]", "value": 7.16, "unit": "µg/mL"},
      {"measurement": "Drug uptake", "setting": "[9]", "value": 24.5, "unit": "µg/mL"},
      {"measurement": "Drug uptake", "setting": "[10]", "value": 6.38, "unit": "µg/mL"},
      {"measurement": "MIC50", "setting": "Streptococcus pneumoniae [11]", "value": 0.06, "unit": "µg/mL"},
      {"measurement": "MIC50", "setting": "Streptococcus pneumoniae [11]; [15]", "value": "≤ 0.03", "unit": "µg/mL"},
      {"measurement": "MIC50", "setting": "Streptococcus pneumoniae [12]", "value": 0.06, "unit": "µg/mL"},
      {"measurement": "MIC50", "setting": "Streptococcus pneumoniae [12]; [15]", "value": "≤ 0.03", "unit": "µg/mL"},
      {"measurement": "Drug uptake", "setting": "[13]", "value": 12.61, "unit": "µg/mL"},
      {"measurement": "Drug uptake", "setting": "[14]", "value": 5.28, "unit": "µg/mL"}
    ]}
  ]
}
